From patent US20190083521A1, “COMBINATION THERAPY FOR TREATING CANCER” (Epizyme, Inc., priority 2014, published 2019)

Tests used:
[1] = tested on: OCI-AML-4 (MLL-ENL) cells; experiment: Example 7 retest: EPZ-5676 pre-treatment, second compound 72 h, Cell Titer Glo, growth inhibition; format: cell-based; settings: OCI-AML-4 (MLL-ENL); for Combination result with EPZ-5676, Retest: 300 nM EPZ-5676 pre-treatment vs DMSO; for Result (combination with EPZ-5676) / GI50 / GI100: NRAS Q61R (het); for GI50 / GI100: second compound, 72 h
Protocol: (§1) Cells were then treated with a second compound for 72 hours. After this time, plates were developed for endpoint analysis using Cell Titer Glo to measure ATP content, which is used as an indicator of cell viability.
(§2) “N/D” means the GI100 of the second compound could not be determined for both conditions and “-” means not tested.
(§3) Growth Inhibition (GI) as a measure of cell viability: The cell viability of vehicle was measured at the time of dosing the second agent (T0) and after seventy-two hours (T72). […] A GI 200% represents complete death of all cells in the culture well. Compounds reaching an activity plateau of GI 200% are considered cytotoxic. GI is calculated by applying the following test and equation: […]

THP-1 (MLL-AF9) cells = experiment: as above; format: cell-based; parameters: GI100: unit not given here; settings: NRAS G12D
Protocol: as §1, with “Cells were split using EPZ-5676 or DMSO containing growth media and further incubated for an additional 3-day pre-treatment time. Cells were finally seeded in growth media containing EPZ-5676 or DMSO in 96-well plates. Cells” for “Cells”
as §2
as §3, with “(T72). A GI reading of 0% represents no growth inhibition—cells treated with test compound as compared to T72 vehicle signals were measured.” for “(T72).”

RS4-11 (MLL-AF4) cells = experiment: as above; format: cell-based; parameters: GI100: unit not given here; settings: RS4-11 (MLL-AF4), Ras mutation status: None known, second compound, 72 h; for GI50: Homo sapiens
Protocol: as §1, §2, §3

ML-2 (MLL-AF6) cells = experiment: as above; format: cell-based; parameters: GI100: unit not given here; settings: ML-2 (MLL-AF6), KRAS A146T (het); for GI50 / GI100: second compound, 72 h
Protocol: as §1, §2, §3

MOLM-13 (MLL-AF9) cells = experiment: as above; format: cell-based, human; parameters: GI100: unit not given here; settings: MOLM-13 (MLL-AF9); for GI50: Homo sapiens; for GI50 / GI100: second compound, 72 h
Protocol: as §1, §2, §3

SKM-1 (non-MLLr) cells = experiment: as above; format: cell-based, human; parameters: GI100: unit not given here; settings: SKM-1 (non-MLLr); for Combination result with EPZ-5676, Retest: 300 nM EPZ-5676 pre-treatment vs DMSO; for Result (combination with EPZ-5676) / GI50 / GI100: KRAS K117N (homo); for GI50 / GI100: second compound, 72 h
Protocol: as §1, §2, §3

SKM-1 cells = experiment: Example 6 combination screen: 300 nM EPZ-5676 pre-treatment, second compound 72 h, ATPLite, IC50 shift; format: cell-based, human; settings: SKM-1 cells; 300 nM EPZ-5676 pre-treatment (4 + 3 days) vs DMSO, then 2nd compound 72 h; ATPLite; IC50 shift of 2nd compound
Protocol: as §1, with “equilibrated in incubators for 24 hours before treatment with a second compound. Treated assay plates were incubated” for “treated”, “ATPLite” for “Cell Titer Glo”
(§4) “N/D” means that IC50 of the second compound could not be determined for both conditions.

MOLM-13 cells = experiment: as above; format: cell-based, human; settings: 300 nM EPZ-5676 pre-treatment (4 + 3 days) vs DMSO, then 2nd compound 72 h, IC50 shift of 2nd compound
Protocol: as §1, with “equilibrated in incubators for 24 hours before treatment with a second compound. Treated assay plates were incubated” for “treated”, “ATPLite” for “Cell Titer Glo”
as §4

MV4-11 (MLL-AF4) cells = experiment: Combination proliferation assay with Compound A2 (CellTiter-Glo, Chou-Talalay CI); format: cell-based, human; settings: MV4-11 (MLL-AF4); 7 Day Cotreatment Model
Protocol: The acute myelogenous leukemia cell lines MV4-11 (MLL-AF4) and MOLM-13 (MLL-AF9) were obtained from American Type Culture Collection (ATCC; Rockville, Md.) and Deutsche Sammlung von Mikroorganismen and Zellkulturen (DSMZ; Braunschweig, Germany) respectively.
(§5) Studies were performed using MLL-rearranged cell lines in vitro to evaluate the anti-proliferative effect of a combination of two agents together on cell growth. Initial proliferation studies were performed to determine the IC50 of a given compound in each cell line. The cell counts were measured by ATP quantitation using the Promega Cell Titer Glo kit and luminescence values corresponded to the amount of ATP in a given well.
Compounds were evaluated for synergy in the co-treatment phase by testing the compounds in a concentration range which was bracketed around their IC50 values. The compounds were plated to a 96 well plate in a matrix format (FIG. 3) which includes increasing concentrations of each drug in the combination in a constant ratio, in addition to the effect of each compound alone in the study. Cells were seeded and grown in the log-linear phase for 3 or 7 days in the co-treatment phase. Minimum inhibition (DMSO alone) controls were used in each plate to calculate fraction affected (Fa) of a test well. DMSO concentration was kept at 0.1% v/v.
The drug combination analysis was performed utilizing the Chou-Talalay method Synergy was determined using the software package Calcusyn by Biosoft. The combination index (CI) is a quantitative term used to describe the level of synergy or antagonism in a given test system. A combination index less than one indicates synergy, and a CI greater than one indicates antagonism. Further, strong synergism is achieved when the CI value falls below 0.3.
The HP-D300 digital dispenser (Tecan) was used to dispense compounds in a combinatorial matrix. […] Cell viability was measured via ATP content using CellTiter-Glo® (Promega).
Viability was determined using CellTiter-Glo® (Promega).
as §5, with “Proliferation studies” for “Studies”, “MOLM-13, MV4-11 and SKM-1” for “MLL-rearranged”, “cancer cell killing” for “anti-proliferative”, “IC50 values” for “IC50”, “correspond” for “corresponded”
These studies were performed to evaluate both the combinatorial effect of compounds on cell killing and the durability of the effect by washing out one of the agents.
Compounds evaluated for synergy in the co-treatment phase were tested in a range which was bracketed around the IC50's. The compounds were plated to a 96 well plate in a matrix format which includes increasing concentrations of each drug in the combination in a constant ratio, in addition to the effect of each compound alone in the study. Cells were seeded and grown in the log-linear phase for 3 or 7 days in the cotreatment phase. Maximum and minimum inhibition (DMSO alone) controls were used in each plate to calculate fraction affected (Fa) of a test well. DMSO concentration was kept at 0.1% v/v. The drug combination analysis was performed utilizing the Chou-Talalay method. Synergy was determined using the software package Calcusyn by Biosoft. The combination index (CI) is the term used to describe the level of synergy or antagonism in a given test system. A combination index less than one indicates synergy, and a CI greater than one indicates antagonism.
The drug combination analysis was performed using the Chou-Talalay method. Graphs representing values of combination index (CI) versus Fractional effect (Fa) known as Fa-CI plots were generated and synergy was evaluated. Drug synergy was statistically defined by CI values less than 1, antagonism by CI>1 and additive effect by CI equal to 1.

[2] = Ras mutation status: None known

Row | SMILES | Combination result with EPZ-5676, Retest [1] | Result (combination with EPZ-5676) [1] | GI50 [1] [nM] | GI100 [1] | GI50 (THP-1 (MLL-AF9) cells) [nM] | GI100 (THP-1 (MLL-AF9) cells) | GI50 (RS4-11 (MLL-AF4) cells) [nM] | GI100 (RS4-11 (MLL-AF4) cells) | GI50 (ML-2 (MLL-AF6) cells) [nM] | GI100 (ML-2 (MLL-AF6) cells) | GI50 (MOLM-13 (MLL-AF9) cells; [2]) [nM] | GI100 (MOLM-13 (MLL-AF9) cells; [2]) | Combination result with EPZ-5676, Retest (SKM-1 (non-MLLr) cells) | Result (combination with EPZ-5676) (SKM-1 (non-MLLr) cells) | GI50 (SKM-1 (non-MLLr) cells) [nM] | GI100 (SKM-1 (non-MLLr) cells) | Summary of Combination Studies: SKM-1 (SKM-1 cells) | Summary of Combination Studies: MOLM-13 (MOLM-13 cells) | also measured
1 | Cn1cnc2c(F)c(Nc3ccc(Br)cc3F)c(C(=O)NOCCO)cc21 [Binimetinib (MEK-162), Binimetinib] | Synergy (considered synergistic if the GI100 (Growth inhibition 100) value of the second compound decreased by 2-fold or more when EPZ-5676 was added as compared to the DMSO control) | Synergy (considered synergistic if the GI100 (Growth inhibition 100) value of the second compound decreased by 2-fold or more when EPZ-5676 was added as compared to the DMSO control) | 59 | 1.504 | 90 | >10 | > 10000 | >10 | 30 | 0.50 | 720 | 3.96 | Synergy (considered synergistic if the GI100 (Growth inhibition 100) value of the second compound decreased by 2-fold or more when EPZ-5676 was added as compared to the DMSO control) | Synergy (considered synergistic if the GI100 (Growth inhibition 100) value of the second compound decreased by 2-fold or more when EPZ-5676 was added as compared to the DMSO control) | 10 | 0.07 |  |  | Result (combination with EPZ-5676) (ML-2 (MLL-AF6) cells): Synergy (considered synergistic if the GI100 (Growth inhibition 100) value of the second compound decreased by 2-fold or more when EPZ-5676 was added as compared to the DMSO control); Combination result with EPZ-5676, Retest (MOLM-13 (MLL-AF9) cells; 150 nM EPZ-5676 pre-treatment vs DMSO): Synergy (considered synergistic if the GI100 (Growth inhibition 100) value of the second compound decreased by 2-fold or more when EPZ-5676 was added as compared to the DMSO control); Result (combination with EPZ-5676) (MOLM-13 (MLL-AF9) cells; [2]): Synergy (considered synergistic if the GI100 (Growth inhibition 100) value of the second compound decreased by 2-fold or more when EPZ-5676 was added as compared to the DMSO control)
2 | Cn1nccc1Nc1nccc(-c2ccn([C@H](CO)c3ccc(Cl)c(F)c3)c(=O)c2)n1 [GDC0994] | Synergy (considered synergistic if the GI100 (Growth inhibition 100) value of the second compound decreased by 2-fold or more when EPZ-5676 was added as compared to the DMSO control) | Synergy (considered synergistic if the GI100 (Growth inhibition 100) value of the second compound decreased by 2-fold or more when EPZ-5676 was added as compared to the DMSO control) | 904 | 3.068 | 2850 | >10 | 1300 | 2.505 | 590 | 2.55 | 3080 | 4.26 | Synergy (considered synergistic if the GI100 (Growth inhibition 100) value of the second compound decreased by 2-fold or more when EPZ-5676 was added as compared to the DMSO control) | Synergy (considered synergistic if the GI100 (Growth inhibition 100) value of the second compound decreased by 2-fold or more when EPZ-5676 was added as compared to the DMSO control) | 270 | 1.84 |  |  | 
3 | O=C(c1cn(Cc2cncn2Cc2ccc(Br)cc2)cc1-c1cccc2ccccc12)N1CCOCC1 [LB42708] |  |  |  |  |  |  |  |  |  |  |  |  |  |  |  |  | Synergy (considered synergistic if the IC50 value of the second compound decreased by 2-fold or more when EPZ-5676 was added as compared to the DMSO control) | Synergy (considered synergistic if the IC50 value of the second compound decreased by 2-fold or more when EPZ-5676 was added as compared to the DMSO control) | 
4 | O=C(Nc1ccccc1-c1cn2c(CN3CCNCC3)csc2n1)c1cnc2ccccc2n1 [SRT-1720] |  |  |  |  |  |  |  |  |  |  |  |  |  |  |  |  |  | Synergy (considered synergistic if the IC50 value of the second compound decreased by 2-fold or more when EPZ-5676 was added as compared to the DMSO control) | Combination effect with Compound A2 (Table 4) (MV4-11 (MLL-AF4) cells): Synergy (Drug synergy was statistically defined by CI values less than 1)
5 | COc1cc2c(NC3CCN(C4CCCCC4)CC3)nc(N3CCCN(C(C)C)CC3)nc2cc1OCCCN1CCCCC1 [UNC 0646] |  |  |  |  |  |  |  |  |  |  |  |  |  |  |  |  | Synergy (considered synergistic if the IC50 value of the second compound decreased by 2-fold or more when EPZ-5676 was added as compared to the DMSO control) | Synergy (considered synergistic if the IC50 value of the second compound decreased by 2-fold or more when EPZ-5676 was added as compared to the DMSO control) | 
